The nature of data set [1]: Solubility of psilocybin and psilocin in solvents. The class given is physicochemical. As for the experimental part: Psilocybin and psilocin are soluble in methanol and water and are not soluble in isopropanol, ethanol and acetone. Experiments were performed to determine the best solvent compositions for extraction (FIGS. 32B and 32C; Table 7)
Data set [2] in a line: pH stability of purified psilocybin / psilocin over time under aqueous conditions. The class given is physicochemical. The note with it: aqueous solutions across the pH spectrum. The source says: The dephosphorylated indole alkaloids are well known to be unstable. Internal experiments have also quantified and substantiated these findings under aqueous conditions across the pH spectrum (Tables 5 and 6).

Experimental findings from patent US11510952B2, “Ethanol extraction of psychoactive compounds from psilocybin fungus” (PSILO SCIENTIFIC LTD, priority 2020, dated 2022) are described below.

On to `CN(C)CCc1c[nH]c2cccc(O)c12` [Psilocin], for which, in data set [1], the solubility in acetone result was “not soluble”, the solubility in ethanol result is “not soluble”, the solubility in isopropanol entry is “not soluble” and the solubility in methanol entry was “soluble”. Moreover, the solubility in water result in data set [1] is given as “soluble”. The “maximum stability pH” value in data set [2] came out at 4 pH.
On to `CN(C)CCc1c[nH]c2cccc(OP(=O)(O)O)c12` [Psilocybin], for which, in data set [1], the solubility in acetone result was “not soluble”, the solubility in ethanol result is given as “not soluble”, the solubility in isopropanol result is given as “not soluble” and the solubility in methanol result is on record as “soluble”. In addition, the solubility in water entry in data set [1] is reported as “soluble”.
